Measured values taken from article PMC12580772, “A First-in-Human Study of ATM Inhibitor Lartesertib as Monotherapy in Patients with Advanced Solid Tumors” (Clinical Cancer Research, 2025).

Assays:
[1] = tested on: patient-derived xenograft models of triple-negative breast cancer; parameters: method as in PMID 37079339; settings: lartesertib in combination with gartisertib; cited from earlier work
[2] = tested on: immune cell subsets and circulating immune factors; experiment: Immunophenotyping by flow cytometry and circulating immune factors; type: in vivo, human
Protocol: Serial blood samples collected at each visit were tested for total blood cell counts and immune cell subsets (e.g., T cells, B cells, and NK cells) to evaluate immunophenotyping by flow cytometry.
(§1) Circulating immune factors (e.g., IFN-β, IFN-γ, IL-1β, IL-2, IL-4, IL-6, IL-8, IL-10, IL-12p70, IL-13, TNF-α, and NKG2DL) were assessed using immunofluorescence assays. Additionally, blood samples were tested for plasma ctDNA by next-generation sequencing at Guardant Health using the OMNI panel. This analysis was conducted to evaluate surrogate markers of tumor dynamics, sensitivity, and resistance to treatment. Molecular response (MR) was assessed and defined as strongest change of—per visit averaged—somatic variant allele frequency (VAF) against the pretreatment level as follows: Best delta mean VAF = MIN (meanVAFvisiti – meanVAFpretreatment / meanVAFpretreatment)

[3] = tested on: cancer cell lines (head and neck, colon, lung, gastric, breast, and melanoma); parameters: method as in PMID 35405736; settings: in vitro; cited from earlier work
[4] = tested on: ctDNA somatic variant allele frequency; experiment: Plasma ctDNA next-generation sequencing (Guardant Health OMNI panel), molecular response; type: in vivo, human; settings: 21 evaluable patients
Protocol: as §1

[5] = tested on: MiaPaCa2 pancreatic cancer model; parameters: method as in PMID 37079339; settings: combination with the ATR inhibitor gartisertib; cited from earlier work
[6] = tested on: patients with advanced solid tumors; parameters: method as in PMID 38407317; settings: combination of lartesertib and tuvusertib; cited from earlier work
[7] = tested on: HBC-x9 triple-negative breast cancer model; parameters: method as in PMID 35405736; settings: combined with PARP inhibitors (rucaparib or niraparib), wild-type BRCA1/2; cited from earlier work

Question: For `COc1cc2ncc3c(c2cc1-c1cn(C)nc1C)n(-c1c(F)cncc1OC)c(=O)n3C` [lartesertib], which Tumor control rate [1] is on record?
Answer: Its Tumor control rate is 42%.

Question: And the NK cell subsets ([2]; across all DLs)?
Answer: Its NK cell subsets is “negative trend”.

Question: What about the “Cytokine modulation (IFN-γ, IL-10, IL-6, IL-8, and TNF-α)” value ([2]; among different DLs) of the same compound?
Answer: The value was “No relevant trends”.

Question: And the “Levels of most explored immune cell subsets” value ([2]; tested DLs, incl. myeloid-derived suppressor cells, T and B lymphocytes)?
Answer: The value was “did not cause any significant change”.

Question: What about the “Radiotherapy sensitivity of cancer cell lines” value [3] of the same compound?
Answer: Its value is “enhances the radiotherapy sensitivity”.

Question: What about the “Patients with molecular response (ctDNA VAF decrease of ≥50% from baseline)” value [4] of the same compound?
Answer: The value was “four patients of 21 evaluable patients”.

Question: What about the Tumor growth [5] of the same compound?
Answer: Its Tumor growth is “complete tumor growth inhibition”.

Question: And the “Patients experiencing SD for >16 weeks” value [6]?
Answer: Its value is “six of 42”.

Question: And the Efficacy and tolerability [7]?
Answer: Its Efficacy and tolerability is “enhanced efficacy and acceptable tolerability”.
